# Literature values as cited in patent US20040127476A1, “Oral testosterone delivery system with improved sustained release” (priority 2002, published 2004).
# Key:
# [1] = oral 200 mg twice daily, double peak effect
# [2] = oral 200 mg twice daily (two doses)
smiles,measurement,setting,value
"C[C@]12CC[C@H]3[C@@H](CCC4=CC(=O)CC[C@@]43C)[C@@H]1CC[C@@H]2O [micronized testosterone, testosterone]","time at desired level of serum testosterone, for each peak",[1],about 4 hours
same,time with total serum testosterone within the normal range,[2],greater than 12 h
